Entries after “also recorded” stand apart in the source; their conditions may differ. Marks after values point to notes of the source that are not given here.
Columns and labels:
[1] = system: MK-801-induced memory/learning dysfunctions; assay: Step-through passive avoidance response test, MK-801-induced memory/learning dysfunctions; assay type: in vivo, Wistar male rats
Experimental: Wistar male rats (7 weeks old) were used. […] Serotonin 5-HT 1A receptor antagonist WAY-100635 or noradrenaline a2 receptor antagonist 1-PP was dissolved in a physiological saline solution (Otsuka Pharmaceutical Co., Ltd.) and used as a test compound. As an NMDA type receptor antagonist, MK-801 hydrogen maleate (SIGMA-ALDRICH M-107) was dissolved in a physiological saline solution (Otsuka Pharmaceutical Co., Ltd.). […] For the evaluation of state-dependency of MC-801, MK-801 was administered before the training session, and a physiological saline solution was administered before the testing session instead. The dosing value thereof was 5 ml/kg for each.
The step-through type passive avoidance response test was carried out in the following manners with the use of an apparatus consisting of a light-dark box, a slide door dividing the light-dark box and a shock generator (manufactured by O'hara & Co., Ltd., PA-2030A, PA-3001A) as an experimental apparatus. Namely, on Day 1 of the experiment, after a test compound and MK-801 were administered, the rats were put into the light box of the experimental apparatus where the back of each rat was directed to the dark box. Then, 10 seconds later, a slide door set at the border between the dark box and the light box was opened. Due to the habits of the rats, once the rats entered into the dark box, the slide door was quickly closed. At three seconds after entering into the dark box, an electroconvulsive shock ([…], for 3 seconds) was given to the rats. The period between the time just after the slide door was opened and the time at which the rats entered into the dark box was measured as a step-through latency. […] On Day 2 of the experiment, the testing session was carried out about 24 hours after the training session. Thirty minutes prior to the testing session, MK-801 or a vehicle thereof, i.e., a physiological saline solution, was subcutaneously administered to the rats. The procedures of the testing session were carried out in the same manner to the training session except that no electroconvulsive shock was given. The step-through latency at the testing session was measured up to 300 seconds, and the step-through latency over 300 seconds was regarded as 300 seconds. […] The statistical analysis of the % of animals avoiding was done by x^2 test with Bonferroni's correction. The animals were used in a group of 10 to 25 animals per group, and the data was expressed by percentage.

[2] = system: memory/learning dysfunctions in the passive avoidance response; assay: Passive avoidance response test, drug administered alone without MK-801; assay type: in vivo, Wistar male rats; conditions: drug alone without MK-801, passive avoidance response, rats
Experimental: Then, 10 seconds later, a slide door set at the border between the dark box and the light box was opened. Due to the habits of the rats, once the rats entered into the dark box, the slide door was quickly closed. At three seconds after entering into the dark box, an electroconvulsive shock ([…], for 3 seconds) was given to the rats. The period between the time just after the slide door was opened and the time at which the rats entered into the dark box was measured as a step-through latency. […] On Day 2 of the experiment, the testing session was carried out about 24 hours after the training session. […] The procedures of the testing session were carried out in the same manner to the training session except that no electroconvulsive shock was given. The step-through latency at the testing session was measured up to 300 seconds, and the step-through latency over 300 seconds was regarded as 300 seconds. […] The statistical analysis of the % of animals avoiding was done by x^2 test with Bonferroni's correction. The animals were used in a group of 10 to 25 animals per group, and the data was expressed by percentage.

[3] = system: methamphetamine-induced hyperponesis; conditions: rats; reflects anti-psychotic activity; cited from earlier work
[4] = MK-801 administered only in the training session
[5] = MK-801 prior to both training and testing sessions, MK-801 + drug 1 mg/kg p.o.
[6] = MK-801 prior to both training and testing sessions, MK-801 + drug 3 mg/kg p.o.
[7] = MK-801 prior to training session only, MK-801 + drug 3 mg/kg p.o.
[8] = MK-801 administered in both training and testing sessions
[9] = MK-801 prior to both training and testing sessions, MK-801 + drug 0.3 mg/kg p.o.
[10] = MK-801 prior to both training and testing sessions, MK-801 + drug 10 mg/kg p.o.
[11] = MK-801 prior to both training and testing sessions, MK-801 + drug 0.1 mg/kg p.o.

Structure (SMILES)	% of animals avoiding [1, 5]	% of animals avoiding [1, 6]	Minimum dose to induce memory dysfunction by single application [2]	drug efficacy on memory dysfunction (in words) [1, 8]	% of animals avoiding [1, 9]	% of animals avoiding [1, 10]	also measured
Cl.Cl.c1cnc(N2CCNCC2)nc1 [1-PP, 1-(2-pyrimidyl)piperazine dihydrochloride]	47* %	67* %	–	–	–	–	drug efficacy on memory dysfunction (in words) ([1]; MK-801 administered in both training and testing sessions, dihydrochloride): memory/learning improving efficacy is recognized; also recorded: a significant improving activity was observed; drug efficacy on memory dysfunction (in words) [1, 4]: no drug efficacy; % of animals avoiding [1, 7]: 8%
O=C1CCc2ccc(OCCCCN3CCN(c4cccc(Cl)c4Cl)CC3)cc2N1 [Aripiprazole, aripiprazole]	16%	16%	10 mg/kg, p.o	no drug efficacy was observed	–	–	–
CN1CCN(C2=Nc3cc(Cl)ccc3Nc3ccccc32)CC1 [Clozapine, clozapine]	36* %	20%	10 mg/kg, p.o	–	44* %	10%	–
O=C(CCCN1CCC(O)(c2ccc(Cl)cc2)CC1)c1ccc(F)cc1 [Haloperidol]	15%	10%	10 mg/kg, p.o	no drug efficacy was observed	5%	–	% of animals avoiding [1, 11]: 0%
O=C1[C@@H]2[C@H]3CC[C@H](C3)[C@@H]2C(=O)N1C[C@@H]1CCCC[C@H]1CN1CCN(c2nsc3ccccc23)CC1 [Lurasidone, lurasidone]	35* %	75* %	>30 mg/kg, p.o	memory/learning improving efficacy is recognized; also recorded: a significant improving activity was observed	40* %	70* %	drug efficacy on memory dysfunction (in words) [1, 4]: no drug efficacy; % of animals avoiding ([1]; MK-801 prior to training session only, MK-801 + drug 0.3 mg/kg p.o.): 20%; % of animals avoiding ([1]; MK-801 prior to training session only, MK-801 + drug 1 mg/kg p.o.): 20%; % of animals avoiding [1, 7]: 30%; % of animals avoiding ([1]; MK-801 prior to training session only, MK-801 + drug 10 mg/kg p.o.): 20%
C[C@]12N[C@H](Cc3ccccc31)c1ccccc12 [MK-801]	–	–	–	–	–	–	% of animals avoiding, group treated with MK-801 ([1]; MK-801 0.05 mg/kg s.c. alone, administered prior to training session only): 0%; step-through latency (in words) ([1]; MK-801 before training session and saline before testing session, compared with MK-801 in both sessions): nearly equal decrease in the step-through latency
Cc1cc2c(s1)Nc1ccccc1N=C2N1CCN(C)CC1 [Olanzapine, olanzapine]	20%	20%	–	–	15%	10%	–
OCCOCCN1CCN(C2=Nc3ccccc3Sc3ccccc32)CC1 [Quetiapine, quetiapine]	20%	30%	30 mg/kg, p.o	memory/learning improving efficacy is recognized; also recorded: a significant improving activity was observed	10%	50* %	dose to inhibit 50% of methamphetamine-induced hyperponesis (ED50) [3]: about 100 mg/kg, p.o.
Cc1nc2n(c(=O)c1CCN1CCC(c3noc4cc(F)ccc34)CC1)CCCC2 [Risperidone, risperidone]	28%	10%	3 mg/kg, p.o	memory/learning improving efficacy is recognized	20%	–	% of animals avoiding [1, 11]: 20%
COc1ccccc1N1CCN(CCN(C(=O)C2CCCCC2)c2ccccn2)CC1 [WAY-1000635]	40* %	30%	–	–	30%	–	drug efficacy on memory dysfunction (in words) ([1]; MK-801 administered in both training and testing sessions, listed as WAY-100635): a significant improving activity was observed; drug efficacy on memory dysfunction (in words) ([1]; MK-801 administered in both training and testing sessions, listed as serotonin 5-HT 1A receptor antagonist): memory/learning improving efficacy is recognized
